Results as given in ChEMBL document CHEMBL1201862, “PubChem BioAssay data set” (2004).
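Protocol summary: plate cells (96-well), add compound at 5 concentrations, incubate 48 h, interpolate endpoints linearly. GI50: concentration for 50% inhibition of growth.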 Active and inactive are the calls of the source. Rule as the data show it: active = GI50 up to about 1.1 µM and inactive = higher.

Columns and labels:
Experiment in all cases: NCI-60 cell line screen, 48 h
HOP-18 = test system: HOP-18
UO-31 = test system: UO-31
HCT-116 = test system: HCT-116
A549 = test system: A549
786-0 = test system: 786-0
OVCAR-8 = test system: OVCAR-8
RXF 393 = test system: RXF 393
OVCAR-4 = test system: OVCAR-4
XF498 = test system: XF498
OVCAR-3 = test system: OVCAR-3
SK-MEL-28 = test system: SK-MEL-28
DMS-273 = test system: DMS-273
SF-295 = test system: SF-295
M14 = test system: M14
CAKI-1 = test system: CAKI-1
SK-MEL-5 = test system: SK-MEL-5
NCI-H23 = test system: NCI-H23
LOX IMVI = test system: LOX IMVI
SK-OV-3 = test system: SK-OV-3
U-251 = test system: U-251
OVCAR-5 = test system: OVCAR-5
DLD-1 = test system: DLD-1
TK-10 = test system: TK-10
SF-539 = test system: SF-539
M19-MEL = test system: M19-MEL
HOP-62 = test system: HOP-62
NCI-H226 = test system: NCI-H226
UACC-62 = test system: UACC-62
NCI-H522 = test system: NCI-H522
SN12C = test system: SN12C
RPMI-8226 = test system: RPMI-8226
KM12 = test system: KM12
KM-20L2 = test system: KM-20L2
SF-268 = test system: SF-268
ACHN = test system: ACHN
A498 = test system: A498
HT-29 = test system: HT-29
DMS-114 = test system: DMS-114
SNB-19 = test system: SNB-19
UACC-257 = test system: UACC-257
COLO 205 = test system: COLO 205
EKVX = test system: EKVX
SNB-75 = test system: SNB-75
NCI-H460 = test system: NCI-H460
HOP-92 = test system: HOP-92
HCT-15 = test system: HCT-15
LXFL 529 = test system: LXFL 529
SW-620 = test system: SW-620
Malme-3M = test system: Malme-3M
SNB-78 = test system: SNB-78
IGROV-1 = test system: IGROV-1
HCC 2998 = test system: HCC 2998

Cc1ccc(NC(=O)C(=O)CC(=O)c2ccccc2)cc1C
GI50 (HOP-18): > 100 µM (inactive) | GI50 (UO-31): > 100 µM (inactive) | GI50 (HCT-116): 60.3 µM (inactive) | GI50 (A549): > 100 µM (inactive) | GI50 (786-0): > 100 µM (inactive) | GI50 (OVCAR-8): > 100 µM (inactive) | GI50 (RXF 393): > 100 µM (inactive) | GI50 (OVCAR-4): > 100 µM (inactive) | GI50 (XF498): > 100 µM (inactive) | GI50 (OVCAR-3): 33.6 µM (inactive) | GI50 (SK-MEL-28): > 100 µM (inactive) | GI50 (DMS-273): 56.8 µM (inactive) | GI50 (SF-295): > 100 µM (inactive) | GI50 (M14): > 100 µM (inactive) | GI50 (CAKI-1): 56.8 µM (inactive) | GI50 (SK-MEL-5): > 100 µM (inactive) | GI50 (NCI-H23): > 100 µM (inactive) | GI50 (LOX IMVI): > 100 µM (inactive) | GI50 (SK-OV-3): > 100 µM (inactive) | GI50 (U-251): > 100 µM (inactive) | GI50 (OVCAR-5): > 100 µM (inactive) | GI50 (DLD-1): > 100 µM (inactive) | GI50 (TK-10): > 100 µM (inactive) | GI50 (SF-539): > 100 µM (inactive) | GI50 (M19-MEL): > 100 µM (inactive) | GI50 (HOP-62): > 100 µM (inactive) | GI50 (NCI-H226): > 100 µM (inactive) | GI50 (UACC-62): 70.6 µM (inactive) | GI50 (NCI-H522): 98.9 µM (inactive) | GI50 (SN12C): > 100 µM (inactive) | GI50 (RPMI-8226): > 100 µM (inactive) | GI50 (KM12): 35.8 µM (inactive) | GI50 (KM-20L2): > 100 µM (inactive) | GI50 (SF-268): > 100 µM (inactive) | GI50 (ACHN): > 100 µM (inactive) | GI50 (A498): > 100 µM (inactive) | GI50 (HT-29): > 100 µM (inactive) | GI50 (DMS-114): 86.9 µM (inactive) | GI50 (SNB-19): > 100 µM (inactive) | GI50 (UACC-257): > 100 µM (inactive) | GI50 (COLO 205): > 100 µM (inactive) | GI50 (EKVX): > 100 µM (inactive) | GI50 (SNB-75): > 100 µM (inactive) | GI50 (NCI-H460): > 100 µM (inactive) | GI50 (HOP-92): > 100 µM (inactive) | GI50 (HCT-15): 37.2 µM | GI50 (LXFL 529): 76.9 µM (inactive) | GI50 (SW-620): > 100 µM (inactive) | GI50 (Malme-3M): > 100 µM (inactive) | GI50 (SNB-78): > 100 µM (inactive) | GI50 (IGROV-1): 69.8 µM (inactive) | GI50 (HCC 2998): > 100 µM (inactive)
